Reference: patent US20200215082A1, “Dihydrotestosterone and Dihydrotestosterone Derivatives and Promoters in the Treatment of Cancer” (Tyme, Inc., priority 2016, published 2020)

Test system: cancerous tumor of the distal radius
Test: Treatment of a canine with a cancerous tumor of the distal radius (X-ray)
Format: in vivo
Details: after stanozolol administration, FIG. 1 before, FIG. 2 after, dose and route not given
Protocol: FIG. 1 is an X-ray depicting a cancerous tumor on the distal radius of a canine.
FIG. 2 is an X-ray depicting calcification of the cancerous tumor shown in FIG. 1 after treatment according to a preferred aspect of the disclosure.
A canine presenting with a cancerous tumor of the distal radius (see FIG. 1) was administered stanozolol.

Substance: stanozolol
- calcification of the cancerous tumor: the cancerous tumor calcified
